{"source": "ChEMBL document CHEMBL1201862", "about": "“PubChem BioAssay data set” (2004)", "key": {"SUMO-activating enzyme [1]": {"biological_target": "T1, SUMO-activating enzyme (Homo sapiens, UniProt Q9UBT2)", "T1 sequence (Q9UBE0 whole entry)": "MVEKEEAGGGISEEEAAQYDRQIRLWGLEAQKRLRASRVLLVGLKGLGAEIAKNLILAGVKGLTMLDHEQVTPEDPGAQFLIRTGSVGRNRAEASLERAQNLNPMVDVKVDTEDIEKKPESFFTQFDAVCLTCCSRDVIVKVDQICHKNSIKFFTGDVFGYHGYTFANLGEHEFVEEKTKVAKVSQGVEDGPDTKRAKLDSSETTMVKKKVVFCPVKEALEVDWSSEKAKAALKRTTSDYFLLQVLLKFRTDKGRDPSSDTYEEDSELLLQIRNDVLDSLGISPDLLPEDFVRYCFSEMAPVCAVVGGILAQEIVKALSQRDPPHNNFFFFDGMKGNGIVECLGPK", "T1 sequence (Q9UBT2 whole entry)": "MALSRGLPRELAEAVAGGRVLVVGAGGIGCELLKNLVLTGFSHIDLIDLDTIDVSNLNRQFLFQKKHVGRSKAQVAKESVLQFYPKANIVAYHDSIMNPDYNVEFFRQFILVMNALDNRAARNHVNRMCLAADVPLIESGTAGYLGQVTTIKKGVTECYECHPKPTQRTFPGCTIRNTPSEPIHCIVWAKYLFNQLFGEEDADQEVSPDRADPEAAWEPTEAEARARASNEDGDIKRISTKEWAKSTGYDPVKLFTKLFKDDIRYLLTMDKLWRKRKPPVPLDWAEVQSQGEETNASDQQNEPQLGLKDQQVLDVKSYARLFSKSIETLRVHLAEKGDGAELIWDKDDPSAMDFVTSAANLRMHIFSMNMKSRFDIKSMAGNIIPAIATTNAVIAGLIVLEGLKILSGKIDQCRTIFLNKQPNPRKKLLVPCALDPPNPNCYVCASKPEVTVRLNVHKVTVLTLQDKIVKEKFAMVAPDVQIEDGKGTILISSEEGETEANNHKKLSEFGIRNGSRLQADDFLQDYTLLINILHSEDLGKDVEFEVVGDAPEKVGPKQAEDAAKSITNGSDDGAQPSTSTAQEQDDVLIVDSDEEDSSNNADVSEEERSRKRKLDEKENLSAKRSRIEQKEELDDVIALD", "experiment": "blockers of UBC9-mediated SUMO conjugation – biochemical, AlphaScreen, SUMOylation inhibitor project, confirmation (AID 2018)", "format": "functional"}, "SUMO-activating enzyme [2]": {"biological_target": "T1, SUMO-activating enzyme", "experiment": "blockers of SAE1/SAE2–UBC9 SUMO transfer – biochemical, HTRF, uHTS, primary screen (AID 2006)", "format": "protein-complex assay"}, "[3]": {"biological_target": "Induced myeloid leukemia cell differentiation protein Mcl-1 (Homo sapiens, UniProt Q07820)", "sequence (Q07820 whole entry)": "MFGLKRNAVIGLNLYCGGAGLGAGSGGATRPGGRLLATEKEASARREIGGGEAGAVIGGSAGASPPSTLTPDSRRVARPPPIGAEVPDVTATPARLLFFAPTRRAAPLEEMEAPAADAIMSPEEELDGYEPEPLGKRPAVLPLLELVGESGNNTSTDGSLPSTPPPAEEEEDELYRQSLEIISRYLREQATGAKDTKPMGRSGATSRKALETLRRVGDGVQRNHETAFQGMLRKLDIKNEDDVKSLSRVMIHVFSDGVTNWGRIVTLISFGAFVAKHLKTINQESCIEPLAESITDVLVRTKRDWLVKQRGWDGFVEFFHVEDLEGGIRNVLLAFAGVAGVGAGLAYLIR", "format": "functional"}, "HEK293 [4]": {"tested_on": "HEK293", "experiment": "cells", "format": "functional, cell-based", "settings": "Homo sapiens"}, "HEK293 [5]": {"tested_on": "HEK293", "experiment": "NOD2 signaling inhibitors in MDP-stimulated cells, cell-based, uHTS, luminescence (AID 2001)", "format": "functional", "settings": "Homo sapiens"}, "HEK293 [6]": {"tested_on": "HEK293", "experiment": "cells", "format": "functional, cell-based", "settings": "Homo sapiens", "remark": "listed apart in the source"}, "HEK293 [7]": {"tested_on": "HEK293", "experiment": "inhibition of NOD1-driven NF-kB reporter – cell-based, luminescence, uHTS, primary screen (AID 1578)", "format": "functional", "settings": "Homo sapiens"}, "HEK293 [8]": {"tested_on": "HEK293", "experiment": "cells", "format": "functional, cell-based", "settings": "Homo sapiens", "remark": "listed apart in the source"}, "[9]": {"biological_target": "Nucleotide-binding oligomerization domain-containing protein 2 (Homo sapiens, UniProt Q9HC29)", "experiment": "inhibition of NOD2-driven NF-kB reporter – cell-based, luminescence, uHTS, HEK293 (AID 1566)", "format": "functional"}, "[10]": {"biological_target": "T2, E3 ubiquitin-protein ligase XIAP (Homo sapiens, UniProt P98170)", "T2 sequence (P98170 whole entry)": "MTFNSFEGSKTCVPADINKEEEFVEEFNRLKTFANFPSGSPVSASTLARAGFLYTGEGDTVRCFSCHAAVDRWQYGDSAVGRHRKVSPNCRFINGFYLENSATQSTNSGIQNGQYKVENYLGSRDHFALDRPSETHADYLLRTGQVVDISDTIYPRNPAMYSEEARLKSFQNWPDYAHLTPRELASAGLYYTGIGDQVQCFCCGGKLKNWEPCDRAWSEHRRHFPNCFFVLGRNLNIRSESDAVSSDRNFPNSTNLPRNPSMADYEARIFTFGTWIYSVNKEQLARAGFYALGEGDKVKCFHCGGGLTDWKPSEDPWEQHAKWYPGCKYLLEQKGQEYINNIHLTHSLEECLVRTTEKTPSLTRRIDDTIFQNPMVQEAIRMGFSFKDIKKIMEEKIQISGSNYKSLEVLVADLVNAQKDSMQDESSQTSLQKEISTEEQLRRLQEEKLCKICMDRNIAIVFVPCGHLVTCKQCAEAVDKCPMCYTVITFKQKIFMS", "experiment": "Counter Screen using XIAP-Bir3 for Chemical Antagonists of Bir1/2 domains of IAP-family anti-apoptotic proteins. [Related pubchem assays (depositor defined):AID1018, AID1449, AID1514, AID1638, AID1749, AID1750, AID488957, AID488963]"}, "[11]": {"biological_target": "T2, E3 ubiquitin-protein ligase XIAP", "experiment": "small molecules displacing peptide from XIAP – biochemical, IAP family, fluorescence polarization (AID 1018)", "format": "functional"}, "cells": {"experiment": "cells", "format": "functional"}, "[12]": {"experiment": "THP-1 cell cytotoxicity, dose response, cytotoxicity control for non-replicating M. tuberculosis project (AID 489025)", "format": "functional"}, "Vasopressin V1a receptor": {"biological_target": "Vasopressin V1a receptor (Homo sapiens, UniProt P37288)", "sequence (P37288 whole entry)": "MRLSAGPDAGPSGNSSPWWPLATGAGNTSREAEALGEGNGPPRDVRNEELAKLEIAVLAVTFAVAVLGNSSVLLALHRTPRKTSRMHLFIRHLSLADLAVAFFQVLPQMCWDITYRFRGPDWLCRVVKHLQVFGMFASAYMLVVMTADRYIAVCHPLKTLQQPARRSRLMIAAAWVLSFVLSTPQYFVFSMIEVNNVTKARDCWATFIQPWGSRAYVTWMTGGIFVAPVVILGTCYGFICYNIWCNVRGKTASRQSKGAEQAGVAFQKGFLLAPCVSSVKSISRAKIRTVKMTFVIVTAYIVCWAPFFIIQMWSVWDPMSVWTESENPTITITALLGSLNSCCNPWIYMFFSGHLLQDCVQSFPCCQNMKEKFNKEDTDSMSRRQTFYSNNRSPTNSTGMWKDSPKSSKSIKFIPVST", "experiment": "Counterscreen for Oxytocin Receptor (OXTR) agonists: Fluorescence-based cell-based high throughput dose response assay to identify agonists of the vasopressin 1 receptor (V1R). [Related pubchem assays: 2435 (Primary screen (OXTR agonists in singlicate)), 434991 (Counterscreen (V1R agonists in triplicate)), 2482 (Summary (OXTR agonists)) …", "format": "functional"}, "Oxytocin receptor": {"biological_target": "Oxytocin receptor (Homo sapiens, UniProt P30559)", "sequence (P30559 whole entry)": "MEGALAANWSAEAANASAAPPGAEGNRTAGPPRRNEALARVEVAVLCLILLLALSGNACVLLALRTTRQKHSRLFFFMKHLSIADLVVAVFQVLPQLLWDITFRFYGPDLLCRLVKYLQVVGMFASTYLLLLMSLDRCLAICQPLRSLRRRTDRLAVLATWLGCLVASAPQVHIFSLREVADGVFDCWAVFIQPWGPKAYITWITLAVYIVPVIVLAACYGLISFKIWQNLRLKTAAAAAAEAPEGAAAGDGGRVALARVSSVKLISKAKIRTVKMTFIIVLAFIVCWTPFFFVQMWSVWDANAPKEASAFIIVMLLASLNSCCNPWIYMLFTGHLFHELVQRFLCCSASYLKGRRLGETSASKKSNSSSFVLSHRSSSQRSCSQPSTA", "experiment": "Fluorescence-based cell-based high throughput dose response assay for agonists of the Oxytocin Receptor (OXTR). [Related pubchem assays: 2435 (Primary screen (OXTR agonists in singlicate)), 434991 (Counterscreen (V1R agonists in triplicate)), 2482 (Summary (OXTR agonists)), 434963 (Confirmation screen (OXTR agonists in triplicate))]", "format": "functional"}, "[13]": {"experiment": "Vero E6 cell cytotoxicity, dose response, cytotoxicity control for non-replicating M. tuberculosis project, secondary assay (AID 492998)", "format": "functional, VeroE6", "settings": "Vero C1008"}, "[14]": {"experiment": "HepG2 cell cytotoxicity, dose response, cytotoxicity control for non-replicating M. tuberculosis project (AID 489018)", "format": "functional", "settings": "Mycobacterium tuberculosis"}, "[15]": {"experiment": "Luminescence-based cell-based high throughput dose response assay to identify activators of the DAF-12 from the parasite S. stercoralis (ssDAF-12).", "format": "functional"}, "[16]": {"experiment": "general mammalian cell viability loss – activator set, cherry-pick, cytotoxicity control for miR-122 modulator project, dose response (AID 720690);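 note: HEK293T human cells scored for general mammalian cytotoxicity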", "format": "functional, cell-based"}, "[17]": {"experiment": "activation of miR-122 Renilla sensor silencing – cell-based, Huh7 psiCHECK-miR122, Renilla luciferase, cherry-picked, dose response (AID 651956);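 note: huh7 hepatoma cells stably carrying a psiCHECK-2 miR-122 sensor plasmid; renilla luciferase signal reporting endogenous miR-122 activity after 48 h compound exposure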", "format": "functional"}, "[18]": {"biological_target": "T3, Ubiquitin-conjugating enzyme E2 N (Homo sapiens, UniProt P61088)", "T3 sequence (P61088 whole entry)": "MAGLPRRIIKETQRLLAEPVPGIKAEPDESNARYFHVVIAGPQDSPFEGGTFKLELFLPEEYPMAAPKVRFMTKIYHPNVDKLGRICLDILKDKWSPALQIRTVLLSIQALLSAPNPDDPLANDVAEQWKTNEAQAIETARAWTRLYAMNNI", "format": "functional"}, "[19]": {"experiment": "NIH3T3 cell viability loss – ATP luminescence, mouse fibroblasts, counter-screen, dose response (AID 2010);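 note: cells exposed to compound for about 90 hours before reading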", "format": "functional, cell-based"}, "[20]": {"biological_target": "T3, Ubiquitin-conjugating enzyme E2 N", "format": "functional", "remark": "listed apart in the source"}, "Bcl-2-related protein A1": {"biological_target": "T4, Bcl-2-related protein A1 (Mus musculus, UniProt Q07440)", "T4 sequence (Q07440 whole entry)": "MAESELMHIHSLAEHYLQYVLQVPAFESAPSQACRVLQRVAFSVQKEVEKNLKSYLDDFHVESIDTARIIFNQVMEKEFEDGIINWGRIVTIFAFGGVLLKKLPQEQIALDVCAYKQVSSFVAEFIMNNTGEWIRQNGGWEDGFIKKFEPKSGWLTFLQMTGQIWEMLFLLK", "format": "functional"}, "[21]": {"experiment": "Trypanosoma cruzi growth suppression in host cells – NIH3T3 host cells, beta-gal luminescence, confirmation (AID 2044);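 note: luminescent beta-galactosidase reporter signal from transgenic T. cruzi replicating inside host cells; inhibitors lower the luminescence signal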", "format": "functional, cell-based"}, "[22]": {"biological_target": "Glyceraldehyde-3-phosphate dehydrogenase (Homo sapiens, UniProt P04406)", "sequence (P04406 whole entry)": "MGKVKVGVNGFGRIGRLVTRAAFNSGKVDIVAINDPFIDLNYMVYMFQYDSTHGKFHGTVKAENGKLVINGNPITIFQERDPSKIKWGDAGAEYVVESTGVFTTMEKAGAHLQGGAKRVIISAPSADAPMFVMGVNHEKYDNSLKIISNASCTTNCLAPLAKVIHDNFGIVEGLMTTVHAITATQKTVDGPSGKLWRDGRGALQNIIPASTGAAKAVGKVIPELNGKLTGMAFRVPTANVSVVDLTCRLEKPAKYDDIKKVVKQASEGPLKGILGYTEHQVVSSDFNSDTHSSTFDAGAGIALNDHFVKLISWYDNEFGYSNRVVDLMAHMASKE"}, "[23]": {"biological_target": "T5, Alkaline phosphatase, tissue-nonspecific isozyme (Homo sapiens, UniProt P05186)", "T5 sequence (P05186 whole entry)": "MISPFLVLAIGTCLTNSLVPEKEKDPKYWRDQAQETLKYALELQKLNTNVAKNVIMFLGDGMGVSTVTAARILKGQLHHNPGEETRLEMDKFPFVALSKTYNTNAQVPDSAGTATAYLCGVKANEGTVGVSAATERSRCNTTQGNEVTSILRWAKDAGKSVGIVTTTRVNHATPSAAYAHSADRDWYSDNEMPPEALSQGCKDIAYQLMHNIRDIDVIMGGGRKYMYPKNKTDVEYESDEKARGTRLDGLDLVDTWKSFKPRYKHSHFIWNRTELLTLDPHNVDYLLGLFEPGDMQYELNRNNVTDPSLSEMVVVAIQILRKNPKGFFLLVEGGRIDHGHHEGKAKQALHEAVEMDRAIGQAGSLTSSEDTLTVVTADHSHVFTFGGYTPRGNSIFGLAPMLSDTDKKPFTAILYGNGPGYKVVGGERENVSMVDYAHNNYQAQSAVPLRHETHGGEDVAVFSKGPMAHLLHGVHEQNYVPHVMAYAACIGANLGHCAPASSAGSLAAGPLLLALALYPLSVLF", "experiment": "potency against alkaline phosphatase TNAP – biochemical, luminescent, dose response, SAR follow-up (AID 1056)"}, "[24]": {"biological_target": "Peroxisome proliferator-activated receptor gamma/Nuclear receptor coactivator 2 (Homo sapiens, UniProt P37231)", "sequence (P37231 whole entry)": "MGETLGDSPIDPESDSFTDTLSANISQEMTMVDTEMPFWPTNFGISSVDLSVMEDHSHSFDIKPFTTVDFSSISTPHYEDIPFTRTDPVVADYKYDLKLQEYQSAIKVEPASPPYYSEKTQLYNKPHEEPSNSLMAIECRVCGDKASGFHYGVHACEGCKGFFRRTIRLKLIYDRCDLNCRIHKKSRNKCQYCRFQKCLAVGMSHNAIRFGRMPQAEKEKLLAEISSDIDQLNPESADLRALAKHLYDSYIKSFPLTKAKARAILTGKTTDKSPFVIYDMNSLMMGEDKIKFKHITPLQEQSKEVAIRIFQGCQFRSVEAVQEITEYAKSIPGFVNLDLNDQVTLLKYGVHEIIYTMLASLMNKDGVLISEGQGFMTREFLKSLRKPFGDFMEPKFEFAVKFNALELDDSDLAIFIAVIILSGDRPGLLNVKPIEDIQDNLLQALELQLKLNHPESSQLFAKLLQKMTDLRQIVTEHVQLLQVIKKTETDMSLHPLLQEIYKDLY", "sequence (Q15596 whole entry, further chain)": "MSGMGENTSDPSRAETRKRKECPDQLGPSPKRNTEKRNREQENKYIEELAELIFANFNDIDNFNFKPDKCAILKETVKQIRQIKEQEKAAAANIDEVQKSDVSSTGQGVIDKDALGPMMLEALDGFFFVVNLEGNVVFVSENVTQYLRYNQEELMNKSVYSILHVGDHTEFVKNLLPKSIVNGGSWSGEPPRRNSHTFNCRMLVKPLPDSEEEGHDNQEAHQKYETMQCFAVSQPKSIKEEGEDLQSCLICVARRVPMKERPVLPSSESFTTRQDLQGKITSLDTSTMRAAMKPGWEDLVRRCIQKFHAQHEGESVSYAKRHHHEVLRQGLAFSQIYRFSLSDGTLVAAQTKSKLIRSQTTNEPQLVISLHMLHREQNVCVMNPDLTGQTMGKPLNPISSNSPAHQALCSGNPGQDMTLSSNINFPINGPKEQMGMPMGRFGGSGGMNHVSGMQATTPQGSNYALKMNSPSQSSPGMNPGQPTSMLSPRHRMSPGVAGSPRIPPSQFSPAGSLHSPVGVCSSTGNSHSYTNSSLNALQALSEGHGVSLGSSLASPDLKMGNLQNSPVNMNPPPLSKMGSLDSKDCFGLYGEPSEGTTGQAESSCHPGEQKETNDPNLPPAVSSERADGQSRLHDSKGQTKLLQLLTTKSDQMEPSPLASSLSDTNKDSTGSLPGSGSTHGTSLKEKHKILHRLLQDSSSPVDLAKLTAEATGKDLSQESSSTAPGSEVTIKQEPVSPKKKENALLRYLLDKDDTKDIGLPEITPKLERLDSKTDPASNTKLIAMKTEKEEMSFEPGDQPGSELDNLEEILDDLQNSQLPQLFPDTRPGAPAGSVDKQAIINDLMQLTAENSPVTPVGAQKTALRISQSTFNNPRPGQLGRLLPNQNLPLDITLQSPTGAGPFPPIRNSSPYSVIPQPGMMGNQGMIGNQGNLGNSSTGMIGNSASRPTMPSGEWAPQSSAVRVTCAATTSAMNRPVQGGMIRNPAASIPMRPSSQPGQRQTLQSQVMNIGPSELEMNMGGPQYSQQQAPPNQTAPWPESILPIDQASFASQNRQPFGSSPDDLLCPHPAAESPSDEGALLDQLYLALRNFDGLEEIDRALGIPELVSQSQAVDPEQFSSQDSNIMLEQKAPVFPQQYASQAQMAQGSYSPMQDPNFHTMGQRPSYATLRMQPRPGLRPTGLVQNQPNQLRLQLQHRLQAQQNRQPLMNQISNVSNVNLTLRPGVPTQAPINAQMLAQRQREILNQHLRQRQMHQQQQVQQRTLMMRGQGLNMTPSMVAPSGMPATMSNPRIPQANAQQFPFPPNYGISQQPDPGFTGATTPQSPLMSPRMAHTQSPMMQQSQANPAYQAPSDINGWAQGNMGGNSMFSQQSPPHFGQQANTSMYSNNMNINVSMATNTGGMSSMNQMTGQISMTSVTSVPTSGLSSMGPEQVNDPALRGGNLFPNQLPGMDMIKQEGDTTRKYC", "experiment": "(§1) TR-FRET dose response biochemical High Throughput Screening assay for agonists of the steroid receptor coactivator 2 (SRC-2) recruitment by the peroxisome proliferator-activated receptor gamma (PPAR gamma): non-selective agonists. [Related pubchem assays: 1297, 1032 ]", "format": "functional"}, "[25]": {"biological_target": "Peroxisome proliferator-activated receptor gamma/Nuclear receptor coactivator 1 (Homo sapiens, UniProt P37231)", "experiment": "as §1, with “1 (SRC-1)” for “2 (SRC-2)”, “assays (depositor defined):AID1300, AID1808, AID504735, AID631]” for “assays: 1297, 1032 ]”", "format": "protein assay"}, "[26]": {"biological_target": "Peroxisome proliferator-activated receptor gamma/Nuclear receptor coactivator 3 (Homo sapiens, UniProt P37231)", "experiment": "as §1, with “3 (SRC-3)” for “2 (SRC-2)”, “1301 (Confirmation screen.), 1048 (Primary screen.)]” for “1297, 1032 ]”", "format": "functional"}}, "note": "Calls of active or inactive are those of the source.", "data": [{"smiles": "COc1ccc(/C=C2/SC(=S)N(c3ccc(S(=O)(=O)Nc4nccs4)cc3)C2=O)cc1", "values": [{"measurement": "IC50", "setting": "SUMO-activating enzyme [1]", "result": "1.18 µM (active)"}, {"measurement": "IC50", "setting": "SUMO-activating enzyme [2]", "result": "5.9 µM (active)"}, {"measurement": "IC50", "setting": "[3]", "result": "1.98 µM (active)"}]}, {"smiles": "CCOc1ccccc1C(=O)N1CCN(C(c2ccccc2)c2ccccc2)CC1", "values": [{"measurement": "IC50", "setting": "HEK293 [4]", "result": "> 20 µM (inactive)"}, {"measurement": "IC50", "setting": "HEK293 [5]", "result": "> 20 µM (inactive)"}, {"measurement": "IC50", "setting": "HEK293 [6]", "result": "15.7 µM (active)"}, {"measurement": "EC50", "setting": "HEK293 [7]", "result": "14.3 µM (active)"}, {"measurement": "IC50", "setting": "HEK293 [8]", "result": "> 20 µM (inactive)"}, {"measurement": "EC50", "setting": "[9]", "result": "13 µM (active)"}]}, {"smiles": "COc1ccc(CC2(CO)CCN(Cc3cnn(C)c3)CC2)cc1", "values": [{"measurement": "IC50", "setting": "[10]", "result": "> 100 µM (inactive)"}, {"measurement": "IC50", "setting": "[11]", "result": "> 100 µM (not active)"}]}, {"smiles": "Clc1ccc2c(c1)C(N1CCNCC1)Cc1ccccc1S2", "note": "(configuration not stated)", "values": [{"measurement": "IC50", "setting": "cells", "result": "15.5 µM (active)"}, {"measurement": "CC50", "setting": "[12]", "result": "12 µM (active)"}, {"measurement": "EC50", "setting": "Vasopressin V1a receptor", "result": "21.3 µM (not active)"}, {"measurement": "EC50", "setting": "Oxytocin receptor", "result": "> 9.97 µM (active)"}, {"measurement": "CC50", "setting": "[13]", "result": "11.5 µM (active)"}, {"measurement": "CC50", "setting": "[14]", "result": "8.65 µM (active)"}]}, {"smiles": "Cc1c(C(=O)N2CCc3ccccc32)oc2ccccc12", "values": [{"measurement": "IC50", "setting": "[10]", "result": "> 100 µM (inactive)"}, {"measurement": "IC50", "setting": "[11]", "result": "> 100 µM (not active)"}, {"measurement": "IC50", "setting": "[15]", "result": "> 67.6 µM (inactive)"}]}, {"smiles": "CCN(CC)CCNC(=O)c1ccc(NC(=O)c2cn(-c3ccc(F)cc3)nc2-c2cccc(OC)c2)cc1", "values": [{"measurement": "AC50", "setting": "[16]", "result": "15.8 µM (active)"}, {"measurement": "AC50", "setting": "[17]", "result": "11.1 µM (active)"}, {"measurement": "IC50", "setting": "[18]", "result": "8.8 µM (active)"}, {"measurement": "EC50", "setting": "[19]", "result": "> 60 µM (not active)"}, {"measurement": "IC50", "setting": "[20]", "result": "14.6 µM (active)"}, {"measurement": "IC50", "setting": "Bcl-2-related protein A1", "result": "> 20 µM (inactive)"}, {"measurement": "EC50", "setting": "[21]", "result": "3.25 µM (active)"}]}, {"smiles": "O=C1C2CCCCC2C(=O)N1c1ncn[nH]1", "note": "(configuration not stated)", "values": [{"measurement": "IC50", "setting": "[22]", "result": "> 100 µM (not active)"}, {"measurement": "IC50", "setting": "[23]", "result": "> 100 µM (inactive)"}]}, {"smiles": "O=c1c2ccccc2c(-c2nnc(S)o2)nn1Cc1ccccc1", "values": [{"measurement": "EC50", "setting": "[24]", "result": "11.6 µM (not active)"}, {"measurement": "EC50", "setting": "[25]", "result": "10.3 µM (inactive)"}, {"measurement": "EC50", "setting": "[26]", "result": "63.6 µM (not active)"}]}]}
